Like-named read-outs stand apart in the source and are kept apart here.
Columns and labels:
[1] = test system: mitochondrial membrane potential; format: cell-based, mouse
reactive oxygen species = format: cell-based, mouse
OXPHOS gene expression = format: cell-based, mouse
nuOXPHOS transcripts = format: cell-based, mouse
mtOXPHOS transcripts = format: cell-based, mouse
cytochrome c = format: cell-based, mouse
Atp5a1 = assay: Quantitative PCR of Atp5a1 (nuOXPHOS) expression; format: cell-based, mouse
Method: (§1) (a) Compounds indicated in FIG. 4 were retested at 20 nM, 200 nM, 2 μM and 20 μM. Gene expression levels are represented as a row-normalized heat map, with negative controls (DMSO treatment) and positive controls (PGC-1α treatment) shown. Dose-response curves for ROS levels and viability are also provided, where the y-axis is the composite Z-score. Shaded area indicates the noise envelope (P<0.05). Data shown are the results of four biological replicates per concentration. […] (c) Quantitative PCR measurement of Ppargc1a gene expression, in response to either DMSO alone (Con), 5 μM deoxysappanone B (deo) or 1 μM mebendazole (meb). (d) Quantitative PCR measurement of the nuclear OXPHOS gene Atp5a1. Cells were either treated with compound alone (black bars) or in combination with […] of the ERRa inverse agonist XCT790 (gray bars). (e) Quantitative PCR measurement of Sod2, which encodes the ROS scavenger MnSOD, as in (d). Means and s.d. of expression data are the result of four biological replicates.
(§2) FIG. 8 show measurements of the coupling between nuclear and mitochondrial OXPHOS gene expression. (a) A two-dimensional plot of the composite Z-scores for nuOXPHOS and mtOXPHOS expression is shown. (b) Row-normalized heat map displaying the top 15 compounds in each quadrant (I-IV). Heat map of nuOXPHOS and mtOXPHOS expression is shown along with ATP levels. (c) Real-time PCR validation of select compounds at the indicated doses, using Atp5a1 (nuOXPHOS) and mt-Co1 (mtOXPHOS) normalized to Hprt1 (internal control). Values indicate average fold change from mock-treated (DMSO) wells ±s.d. in four biological replicates.
(§3) Gene expression. […]. The cDNA was then used for real-time PCR quantification of products for mouse Atp5a1 (Mm00431960_ml), Sod2 (MnSOD; Mm01313000_m1) and Ppargc1a (Mm00447183_m1), with Hprt1 (Mm03024075_m1) serving as an internal control, using TaqMan gene-expression assays (Applied Biosystems).

mt-Co1 = assay: Real-time PCR of mt-Co1 (mtOXPHOS) expression; format: cell-based, mouse; settings: 1 μM, FIG. 8c
Description: as §2, §3

[2] = test system: cellular dehydrogenase activity
microtubules = assay: Tubulin immunofluorescence; format: cell-based, mouse; settings: C2C12 myotubes, 48 hours, 10 nM to 10 μM, FIG. 7
Method: Tubulin immunofluorescence. […] Cells were washed once in 50 μl PBSTB2 (PBS with 0.1% (vol/vol) Tween-20 and 2% (wt/vol) BSA) and blocked in PBSTB2 for 1 h at room temperature or overnight at 4° C. Cells were incubated with an anti-α-tubulin (Sigma-Aldrich) antibody, 1:1,000 in PBSTB2, for 1 h at room temperature, and then washed three times with PBSTB2. […] Cells were visualized using an automated microscope (IX-Micro, Molecular Devices).

Ppargc1a = assay: Quantitative PCR of Ppargc1a expression; format: cell-based, mouse; settings: 5 μM deoxysappanone B or 1 μM mebendazole, FIG. 6c
Method: as §1, §3

Sod2 = assay: Quantitative PCR of Sod2 (MnSOD) expression; format: cell-based, mouse; settings: in combination with compound, FIG. 6e
Method: as §1, §3

[3] = composite Z-score vs DMSO, Conc 14.22 μM
[4] = composite Z-score vs DMSO, Conc 20 μM
[5] = normalized composite Z-score vs mock-treated (DMSO) wells, Conc 20 μM
[6] = Table 3, differentiated C2C12 myotubes, 48 h treatment, composite Z-score vs DMSO
[7] = Table 6, C2C12 myotubes, 48 h, composite Z-score
[8] = retest at 20 nM to 20 μM, FIG. 6a
[9] = Table 7, C2C12 myotubes, 48 h, composite Z-score

Work on `C[C@@H]1C[C@@H]([C@H](O)CC2CC(=O)NC(=O)C2)C(=O)[C@@H](C)C1` [Cycloheximide, reference compound] yielded a ΔΨm [1, 3] of 2.318, a ΔΨm [1, 4] of 2.759 and an ROS (reactive oxygen species; [3]) of −3.415. The ROS (reactive oxygen species; [4]) was −2.628, the GE-HTS (OXPHOS gene expression; [3]) was −0.504 and the GE-HTS (OXPHOS gene expression; [4]) was −1.482. For the same compound, the nucOX (nuOXPHOS transcripts; [3]) was 1.354, the nucOX (nuOXPHOS transcripts; [4]) was 0.688 and the nuOXPHOS expression (nuOXPHOS transcripts; screen, relative to mtOXPHOS, in words) was “preferentially increase”. The mitoOX (mtOXPHOS transcripts; [3]) was −4.179, the mitoOX (mtOXPHOS transcripts; [4]) was −5.637 and the cyt c (cytochrome c; [3]) was −1.378. The cyt c (cytochrome c; [4]) was −2.123, the nuOXPHOS elevated (Atp5a1; 1 μM, real-time PCR, FIG. 8c) was 1.3 fold and the mtOXPHOS decreased (mt-Co1) was 2.4 fold. It also gave a Viability (C2C12 myotubes; [3]) of −2.540, a Viability (C2C12 myotubes; [4]) of −2.804 and an MTT [2, 3] of −3.550. The MTT [2, 4] was −3.499.

With `COc1ccc2c(c1)OCC(Cc1ccc(O)c(OC)c1)C2=O` (stereo not shown) [deoxysappanone b 7,3′-dimethyl ether, reference compound] the ΔΨm [1, 5] was −0.637, the “ROS Zscore” value (reactive oxygen species; [6]) was −1.712 and the “ROS Zscore” value (reactive oxygen species; [7]) was −1.712. The ROS (reactive oxygen species; [5]) was −1.712, the “dose at which ROS levels decreased” value (reactive oxygen species; [8]) was 2 µM and the GEHTS_Zscore (OXPHOS gene expression; [6]) was 2.577. For the same compound, the GEHTS_Zscore (OXPHOS gene expression; [7]) was 2.577, the GE-HTS (OXPHOS gene expression; [5]) was 2.118 and the “dose at which OXPHOS expression increased” value (OXPHOS gene expression; [8]) was 2 µM. The “nucOXPHOS Z” value (nuOXPHOS transcripts; [9]) was 2.25, the nucOX (nuOXPHOS transcripts; [5]) was 2.250 and the “mito-OXPHOS Z” value (mtOXPHOS transcripts; [9]) was 1.38. For the same compound, the mitoOX (mtOXPHOS transcripts; [5]) was 1.383, the cyt c (cytochrome c; [5]) was −0.951 and the “potency required for microtubule disruption” value (microtubules) was “the same as that required to affect OXPHOS expression and ROS level”. For the same compound, the “expression of Ppargc1α” value (Ppargc1a) was “approximately threefold”, the “increase of Atp5a1 expression” value (Atp5a1; compound alone, FIG. 6d) was 20% and the Viability (C2C12 myotubes; [5]) was −1.120. It also gave an MTT [2, 5] of −2.870.

`COc1cc(/C=C(\C#N)C(=O)Nc2nnc(C(F)(F)F)s2)ccc1OCc1ccc(C(F)(F)F)cc1C(F)(F)F` [XCT790] was tested, and the “effect of XCT790 on compound-induced Atp5a1 increase” value (Atp5a1; in combination with mebendazole or deoxysappanone B, 5 mM XCT790, FIG. 6d) was “completely inhibited” and the “effect of XCT790 on compound-induced MnSOD increase” value (Sod2) was “suppressible”.

Source: patent US20090143279A1 (priority 2007, published 2009)
